Source: US20250145665A1, “MACROCYCLIC PEPTIDES USEFUL AS MODULATORS OF TNF ALPHA” (Bristol-Myers Squibb Company, priority 2023, published 2025)
Starred links: 1 amine or outer side, 2 acyl side, 3 side chain; linkers in the order of their positions; H or OH if unused. Positions of bridges follow the written chain, without caps; N, C: chain ends. Non-standard residues stand in square brackets, D forms with d. Residues, ends and D or L forms follow the SMILES beside them. *: point of attachment. Bip(4'-NHCO-C6H4-3-CH2COOH) = N[C@@H](Cc1ccc(-c2ccc(NC(=O)c3cccc(CC(=O)O)c3)cc2)cc1)C(=O)O; Bip(4'-(3-HOOC-benzamido)) = N[C@@H](Cc1ccc(-c2ccc(NC(=O)c3cccc(C(=O)O)c3)cc2)cc1)C(=O)O; dArg(Nω-CH2C6H4-3-CH2Gua) = N=C(N)NCc1cccc(CNC(=N)NCCC[C@@H](N)C(=O)O)c1; Bip(4'-NHBz) = N[C@@H](Cc1ccc(-c2ccc(NC(=O)c3ccccc3)cc2)cc1)C(=O)O; Bip(4'-NH) = O=C([C@H](Cc1ccc(-c2ccc(N[*:3])cc2)cc1)N[*:1])[*:2]; Indazole3carbonyl(1-CH2COOH) = O=C(O)Cn1nc(C(=O)*)c2ccccc21; X33 = N=C(NCCC[C@@H](N[*:1])C(=O)[*:2])NCc1cccc(CC(=O)O)c1; X53 = CC(C)(C)n1nnc(CNC(=N)NCCC[C@@H](N[*:1])C(=O)[*:2])n1; X87 = N=C(NCCC[C@@H](N[*:1])C(=O)[*:2])NCc1ccc(C(=O)O)cc1; X80 = N=C(NCCC[C@@H](N[*:1])C(=O)[*:2])NCc1ccc2c(c1)OCO2; X44 = N#Cc1ccc(CNC(=N)NCCC[C@@H](N[*:1])C(=O)[*:2])cc1; X7 = N=C(NCCC[C@@H](N[*:1])C(=O)[*:2])NCc1ccc2occc2c1; X26 = N=C(NCCC[C@@H](N[*:1])C(=O)[*:2])NCc1ccc(O)cc1; Ala(morpholin-4-yl) = N[C@@H](CN1CCOCC1)C(=O)O; Bip = N[C@@H](Cc1ccc(-c2ccccc2)cc1)C(=O)O; Cha = N[C@@H](CC1CCCCC1)C(=O)O; Chg = N[C@H](C(=O)O)C1CCCCC1; Sar = CNCC(=O)O

Molecular target: TNFα (Homo sapiens, UniProt P01375)
Experiment: TNF-Induced HEK-Blue Assay
Type: cell-based
Conditions: not given

Chain of TNFα (P01375 77-233 limits assumed): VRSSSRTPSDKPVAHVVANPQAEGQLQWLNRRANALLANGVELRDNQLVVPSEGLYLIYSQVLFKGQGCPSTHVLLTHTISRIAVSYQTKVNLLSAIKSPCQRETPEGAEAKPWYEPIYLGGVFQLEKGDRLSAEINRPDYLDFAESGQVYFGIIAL

Compound | IC50 [nM]
CC(C)C[C@@H]1NC(=O)[C@H](CCCNC(=N)N)NC(=O)[C@H](C(C)C)NC(=O)[C@@H]2CCCN2C(=O)[C@H](C(C)C)NC(=O)[C@@H](CCCNC(=N)NCc2ccc(C#N)cc2)NC(=O)[C@H](CC(=O)O)NC(=O)[C@@H]2CCCN2C(=O)CN(C)C(=O)[C@H](Cc2ccc(-c3ccc(NC(=O)c4nn(CC(=O)O)c5ccccc45)cc3)cc2)NC(=O)[C@H](Cc2ccc(-c3ccccc3)cc2)NC(=O)[C@H](CN2CCOCC2)NC(=O)CSC[C@@H](C(=O)NCC(N)=O)NC1=O [Example 506] ({CH2CO}-[Ala(morpholin-4-yl)][Bip][Bip(4'-NH)](Indazole3carbonyl(1-CH2COOH))[Sar]PD[X44]VPVRLCG-NH2; thioether N-13) | < 50
CC(C)C[C@@H]1NC(=O)[C@H](CCCNC(=N)N)NC(=O)[C@H](C(C)C)NC(=O)[C@@H]2CCCN2C(=O)[C@H](C(C)C)NC(=O)[C@@H](CCCNC(=N)NCc2ccc(C(=O)O)cc2)NC(=O)[C@H](CC(=O)O)NC(=O)[C@@H]2CCCN2C(=O)CN(C)C(=O)[C@H](Cc2ccc(-c3ccc(NC(=O)c4nn(CC(=O)O)c5ccccc45)cc3)cc2)NC(=O)[C@H](Cc2ccc(-c3ccccc3)cc2)NC(=O)[C@H](CN2CCOCC2)NC(=O)CSC[C@@H](C(=O)NCC(N)=O)NC1=O [Example 507] ({CH2CO}-[Ala(morpholin-4-yl)][Bip][Bip(4'-NH)](Indazole3carbonyl(1-CH2COOH))[Sar]PD[X87]VPVRLCG-NH2; thioether N-13) | < 50
CC(C)C[C@@H]1NC(=O)[C@H](CCCNC(=N)N)NC(=O)[C@H](C(C)C)NC(=O)[C@@H]2CCCN2C(=O)[C@H](C(C)C)NC(=O)[C@@H](CCCNC(=N)NCc2ccc(O)cc2)NC(=O)[C@H](CC(=O)O)NC(=O)[C@@H]2CCCN2C(=O)CN(C)C(=O)[C@H](Cc2ccc(-c3ccc(NC(=O)c4nn(CC(=O)O)c5ccccc45)cc3)cc2)NC(=O)[C@H](Cc2ccc(-c3ccccc3)cc2)NC(=O)[C@H](CN2CCOCC2)NC(=O)CSC[C@@H](C(=O)NCC(N)=O)NC1=O [Example 508] ({CH2CO}-[Ala(morpholin-4-yl)][Bip][Bip(4'-NH)](Indazole3carbonyl(1-CH2COOH))[Sar]PD[X26]VPVRLCG-NH2; thioether N-13) | < 50
CC(C)C[C@@H]1NC(=O)[C@H](CCCNC(=N)N)NC(=O)[C@H](C(C)C)NC(=O)[C@@H]2CCCN2C(=O)[C@H](C(C)C)NC(=O)[C@@H](CCCNC(=N)NCc2ccc3c(c2)OCO3)NC(=O)[C@H](CC(=O)O)NC(=O)[C@@H]2CCCN2C(=O)CN(C)C(=O)[C@H](Cc2ccc(-c3ccc(NC(=O)c4nn(CC(=O)O)c5ccccc45)cc3)cc2)NC(=O)[C@H](Cc2ccc(-c3ccccc3)cc2)NC(=O)[C@H](CN2CCOCC2)NC(=O)CSC[C@@H](C(=O)NCC(N)=O)NC1=O [Example 509] ({CH2CO}-[Ala(morpholin-4-yl)][Bip][Bip(4'-NH)](Indazole3carbonyl(1-CH2COOH))[Sar]PD[X80]VPVRLCG-NH2; thioether N-13) | < 50
CC(C)C[C@@H]1NC(=O)[C@H](CCCNC(=N)N)NC(=O)[C@H](C(C)C)NC(=O)[C@@H]2CCCN2C(=O)[C@H](C(C)C)NC(=O)[C@@H](CCCNC(=N)NCc2nnn(C(C)(C)C)n2)NC(=O)[C@H](CC(=O)O)NC(=O)[C@@H]2CCCN2C(=O)CN(C)C(=O)[C@H](Cc2ccc(-c3ccc(NC(=O)c4nn(CC(=O)O)c5ccccc45)cc3)cc2)NC(=O)[C@H](Cc2ccc(-c3ccccc3)cc2)NC(=O)[C@H](CN2CCOCC2)NC(=O)CSC[C@@H](C(=O)NCC(N)=O)NC1=O [Example 510] ({CH2CO}-[Ala(morpholin-4-yl)][Bip][Bip(4'-NH)](Indazole3carbonyl(1-CH2COOH))[Sar]PD[X53]VPVRLCG-NH2; thioether N-13) | < 50
CC(C)C[C@@H]1NC(=O)[C@H](CCCNC(=N)N)NC(=O)[C@H](C(C)C)NC(=O)[C@@H]2CCCN2C(=O)[C@H](C(C)C)NC(=O)[C@@H](CCCNC(=N)NCc2cccc(CC(=O)O)c2)NC(=O)[C@H](CC(=O)O)NC(=O)[C@@H]2CCCN2C(=O)CN(C)C(=O)[C@H](Cc2ccc(-c3ccc(NC(=O)c4nn(CC(=O)O)c5ccccc45)cc3)cc2)NC(=O)[C@H](Cc2ccc(-c3ccccc3)cc2)NC(=O)[C@H](CN2CCOCC2)NC(=O)CSC[C@@H](C(=O)NCC(N)=O)NC1=O [Example 511] ({CH2CO}-[Ala(morpholin-4-yl)][Bip][Bip(4'-NH)](Indazole3carbonyl(1-CH2COOH))[Sar]PD[X33]VPVRLCG-NH2; thioether N-13) | 50 to 200
CC(C)C[C@@H]1NC(=O)[C@H](CCCNC(=N)N)NC(=O)[C@H](C(C)C)NC(=O)[C@@H]2CCCN2C(=O)[C@H](C(C)C)NC(=O)[C@@H](CCCNC(=N)NCc2cccc(CNC(=N)N)c2)NC(=O)[C@H](CC(=O)O)NC(=O)[C@@H]2CCCN2C(=O)CN(C)C(=O)[C@H](Cc2ccc(-c3ccc(NC(=O)c4nn(CC(=O)O)c5ccccc45)cc3)cc2)NC(=O)[C@H](Cc2ccc(-c3ccccc3)cc2)NC(=O)[C@H](CN2CCOCC2)NC(=O)CSC[C@@H](C(=O)NCC(N)=O)NC1=O [Example 512] ({CH2CO}-[Ala(morpholin-4-yl)][Bip][Bip(4'-NH)](Indazole3carbonyl(1-CH2COOH))[Sar]PD[dArg(Nω-CH2C6H4-3-CH2Gua)]VPVRLCG-NH2; thioether N-13) | < 50
CC(C)C[C@@H]1NC(=O)[C@H](Cc2c[nH]cn2)NC(=O)[C@H](C2CCCCC2)NC(=O)[C@@H]2CCCN2C(=O)[C@H](C(C)C)NC(=O)[C@@H](CCCNC(=N)N)NC(=O)[C@H](CC(=O)O)NC(=O)[C@H](Cc2cnc[nH]2)NC(=O)CN(C)C(=O)[C@H](Cc2ccc(-c3ccc(NC(=O)c4ccccc4)cc3)cc2)NC(=O)[C@H](Cc2ccc(-c3ccccc3)cc2)NC(=O)[C@H](CC2CCCCC2)NC(=O)CSC[C@@H](C(=O)NCC(N)=O)NC1=O [Example 513] ({CH2CO}-[Cha][Bip][Bip(4'-NHBz)][Sar]HD[dR]VP[Chg]HLCG-NH2; thioether N-13) | < 50

Same assay, conditions: HEK-Blue-CD40L cells, NF-kB-driven secreted alkaline phosphatase reporter; TNFα 0.5 ng/ml; 18 h; read-out: TNF induced HEK-Blue assay IC50 value

IC50 [nM] | Compound
50 to 200 | CC[C@H](C)[C@@H]1NC(=O)[C@@H](CCCNC(=N)NCc2ccc3occc3c2)NC(=O)[C@H](CC(=O)O)NC(=O)[C@H](Cc2cnc[nH]2)NC(=O)CN(C)C(=O)[C@H](Cc2ccc(-c3ccc(NC(=O)c4cccc(CC(=O)O)c4)cc3)cc2)NC(=O)[C@H](Cc2ccc(-c3ccccc3)cc2)NC(=O)[C@H](CC2CCCCC2)NC(=O)CSC[C@@H](C(=O)NCC(N)=O)NC(=O)[C@H](CC(C)C)NC(=O)[C@H](Cc2c[nH]cn2)NC(=O)[C@H](C(C)C)NC(=O)[C@@H]2CCCN2C1=O [Example 505] ({CH2CO}-[Cha][Bip][Bip(4'-NHCO-C6H4-3-CH2COOH)][Sar]HD[X7]IPVHLCG-NH2; thioether N-13)
< 50 | CC(C)C[C@@H]1NC(=O)[C@H](Cc2c[nH]cn2)NC(=O)[C@H](C2CCCCC2)NC(=O)[C@@H]2CCCN2C(=O)[C@H](C(C)C)NC(=O)[C@@H](CCCNC(=N)N)NC(=O)[C@H](CC(=O)O)NC(=O)[C@H](Cc2cnc[nH]2)NC(=O)CN(C)C(=O)[C@H](Cc2ccc(-c3ccc(NC(=O)c4cccc(C(=O)O)c4)cc3)cc2)NC(=O)[C@H](Cc2ccc(-c3ccccc3)cc2)NC(=O)[C@H](CC2CCCCC2)NC(=O)CSC[C@@H](C(=O)NCC(N)=O)NC1=O [Example 514] ({CH2CO}-[Cha][Bip][Bip(4'-(3-HOOC-benzamido))][Sar]HD[dR]VP[Chg]HLCG-NH2; thioether N-13)
